# Laboratory results as given in patent US11466044B2 (WAYNE STATE UNIVERSITY, priority 2017, dated 2022).
# Like-named read-outs stand apart in the source and are kept apart here.
# Columns and labels:
# MRSA = test: MIC by broth microdilution, MRSA isolates; assay type: cell-based; conditions: for MIC: Staphylococcus aureus, MRSA; for MIC AG039 MRSA AAC(6′)-I ANT(4′)-I: clinical isolate AG039, AAC(6′)-I ANT(4′)-I; for MIC AG042 MRSA AAC(6′)-I ANT(4′)-I APH(2′): clinical isolate AG042, AAC(6′)-I ANT(4′)-I APH(2′)
# E coli wild type = test: MIC by broth microdilution, wild type E coli; assay type: cell-based; conditions: for MIC: Escherichia coli; for MIC pH430 WT: E. coli strain pH430, WT
# P aeruginosa = test: MIC by broth microdilution, P aeruginosa isolates; assay type: cell-based, Pseudomonas aeruginosa; conditions: for MIC: Pseudomonas aeruginosa; for MIC AG031 P. aer. APH(3′)-II: clinical isolate AG031, APH(3′)-II; for MIC AG032 P. aer. APH(3′)-II: clinical isolate AG032, APH(3′)-II
# [1] = system: E coli carrying specific resistance determinants; test: MIC by broth microdilution, E coli carrying specific resistance determinants; assay type: cell-based; conditions: for MIC: Escherichia coli; for MIC AG036 ANT(4′,4′′): E. coli strain AG036, ANT(4′,4′′); for MIC AG037 APH(3′)-III: E. coli strain AG037, APH(3′)-III; for MIC AG103 armA: E. coli strain AG103, armA; for MIC pH414 AAC(6′)-I: E. coli strain pH414, AAC(6′)-I; for MIC pH415 AAC(6′)-II: E. coli strain pH415, AAC(6′)-II; for MIC pH421 APH(3)-I: E. coli strain pH421, APH(3)-I; for MIC pH422 APH(3′)-II: E. coli strain pH422, APH(3′)-II; for MIC pH423 APH(3′)-VI: E. coli strain pH423, APH(3′)-VI; for MIC pH432 ANT(4′): E. coli strain pH432, ANT(4′); for MIC AG003 E. coli AAC(3)-II: clinical isolate AG003, AAC(3)-II
# M. abscessus = test: MIC by broth microdilution, M. abscessus; assay type: cell-based; conditions: Mycobacteroides abscessus
# [2] = system: wild type bacterial ribosomes; test: in-vitro translation assay, bacterial ribosomes; assay type: biochemical
# Description: (§1) The antiribosomal activity of these compounds was investigated with cell-free translation assays using both wild type bacterial ribosomes and hybrid ribosomes carrying eukaryotic decoding A sites enabling the prediction of selectivity.
# [3] = system: A1555G mutant mitochondrial ribosome (human chimeric); test: in-vitro translation assay, human chimeric ribosomes, A1555G mutant mitochondrial decoding site; assay type: biochemical; conditions: human mitochondrial decoding site with A1555G point mutation; read-out: IC50 Mitoch. A1555G
# Description: as §1
# [4] = system: cytosolic ribosome (human chimeric); assay type: biochemical
# Description: as §1
# [5] = system: mitochondrial ribosome (human chimeric); assay type: biochemical
# Description: as §1
# [6] = system: rabbit reticulocyte ribosomes; test: in-vitro translation assay, rabbit reticulocyte ribosomes; assay type: biochemical; conditions: mammalian cytosolic ribosomes (rabbit)
# [7] = system: Klebsiella pneumonia AG215; test: MIC by broth microdilution, Klebsiella pneumonia; assay type: cell-based; conditions: strain AG215 Klebsiella pneumonia
# [8] = system: Acinetobacter baumannii pittii AG225; test: MIC by broth microdilution, Acinetobacter baumannii; assay type: cell-based; conditions: strain AG225 Acinetobacter baumannii pittii
# [9] = system: Enterobacter cloacae AG290; test: MIC by broth microdilution, Enterobacter cloacae; assay type: cell-based; conditions: strain AG290 Enterobacter cloacae
# M. smegmatis SZ380 = test: MIC by broth microdilution, M. smegmatis; conditions: Mycolicibacterium smegmatis
# N. gonorrhoeae = test: Disk diffusion, N. gonorrhoeae; assay type: cell-based; conditions: 25 nmol
# [10] = Mycobacterium smegmatis ribosomes, read-out: IC50 Bacterial
# [11] = ribosomes with a human cytosolic decoding site, read-out: IC50 Cytosolic
# [12] = ribosomes with a human mitochondrial decoding site, read-out: IC50 Mitoch.
smiles,measurement,setting,value
"NC[C@H]1O[C@H](O[C@H]2[C@H](O[C@@H]3O[C@H](CO)[C@@H](O)[C@H]3O)[C@@H](O)[C@H](N)C[C@@H]2N)[C@H](N)[C@@H](O)[C@@H]1O [Ribostamycin, ribostamycin, reference compound]",MIC,MRSA; read-out: MIC AG039 MRSA AAC(6′)-I ANT(4′)-I,> 128 µg/mL
same,MIC,MRSA; read-out: MIC AG042 MRSA AAC(6′)-I ANT(4′)-I APH(2′),> 128 µg/mL
same,MIC,"MRSA; clinical isolate AG038, read-out: MIC AG038 MRSA",4 µg/mL
same,MIC,"MRSA; clinical isolate AG044, read-out: MIC AG044 MRSA",8 µg/mL
same,MIC,"E coli wild type; ATCC25922, strain AG212 E. coli (ATCC25922), read-out: MIC AG212 E. coli",4 µg/mL
same,MIC,"E coli wild type; WT, Table 3 (Example 1), read-out: MIC WT",2 µg/mL
same,MIC,"E coli wild type; WT, Table 5 (Example 3), read-out: MIC E. coli WT",2 µg/mL
same,MIC,"E coli wild type; clinical isolate AG001, WT, read-out: MIC AG001 E. coli WT",4 µg/mL
same,MIC,"E coli wild type; clinical isolate AG055, WT, read-out: MIC AG055 E. coli WT",2 µg/mL
same,MIC,"E coli wild type; clinical isolate AG160 WT, Table 2 (Example 4), read-out: MIC AG160 E. coli WT",4 µg/mL
same,MIC,"E coli wild type; engineered strain pH430 WT, Table 2 (Example 4), read-out: MIC pH430 E. coli WT",2 µg/mL
same,MIC,"P aeruginosa; ATCC27853, read-out: MIC AG220 P. aerugin",> 128 µg/mL
same,MIC,P aeruginosa; read-out: MIC AG031 P. aer. APH(3′)-II,> 128 µg/mL
same,MIC,P aeruginosa; read-out: MIC AG032 P. aer. APH(3′)-II,> 128 µg/mL
same,MIC,[1]; read-out: MIC AG003 E. coli AAC(3)-II,4 µg/mL
same,MIC,[1]; read-out: MIC AG037 E. coli APH(3′)-III,32 to 64 µg/mL
same,MIC,[1]; read-out: MIC AG163 E. coli APH(3′)-I,> 128 µg/mL
same,MIC,[1]; read-out: MIC AG166 E. coli APH(3′)-II,> 128 µg/mL
same,MIC,[1]; read-out: MIC APH(3)-VI,> 64 µg/mL
same,MIC,[1]; read-out: MIC APH(3′)-I,> 64 µg/mL
same,MIC,[1]; read-out: MIC APH(3′)-II,> 64 µg/mL
same,MIC,[1]; read-out: MIC APH(3′)-III,32 to 64 µg/mL
same,MIC,[1]; read-out: MIC E. coli AG106 AAC(2′)-Ia,128 µg/mL
same,MIC,[1]; read-out: MIC E. coli pGB2armA armA,2 µg/mL
same,MIC,[1]; read-out: MIC E. coli pH434 AAC(2′)-Ib,> 128 µg/mL
same,MIC,[1]; read-out: MIC pH421 E. coli APH(3′)-I,> 128 µg/mL
same,MIC,[1]; read-out: MIC pH422 E. coli APH(3′)-II,128 to 256 µg/mL
same,MIC,[1]; read-out: MIC pH423 E. coli APH(3′)-VI,> 128 µg/mL
same,MIC,"M. abscessus; ATCC19977, ATCC 19977 WT, Table 5 (Example 3), read-out: MIC M. abscessus ATCC 19977 WT",128 µg/mL
same,MIC,M. abscessus; read-out: MIC M. abscessus clinical isolate,128 µg/mL
same,MIC,M. abscessus; read-out: MIC M. abscessus engineered Δeis2,32 µg/mL
same,IC50,[2]; [10],0.09 µM
same,IC50,"[2]; bacterial ribosome, Table 3 (Example 1), read-out: IC50 Bac",0.09 µM
same,IC50,[3],68 µM
same,IC50,"[4]; cytosolic, Table 3 (Example 1), read-out: IC50 Cyt",484 µM
same,IC50,[4]; [11],484 µM
same,IC50,"[5]; mitochondrial, Table 3 (Example 1), read-out: IC50 Mit",443 µM
same,IC50,[5]; [12],443 µM
same,IC50,[6],172 µM
same,MIC,"[7]; Klebsiella pneumoniae, read-out: MIC AG215 K. pneumon",2 µg/mL
same,MIC,[8],4 µg/mL
same,MIC,[9]; read-out: MIC AG290 E. cloacae,4 µg/mL
same,MIC,"M. smegmatis SZ380; SZ380, read-out: MIC M. smegmatis SZ380 WT, SZ380 WT, Table 5 (Example 3)",8 µg/mL
same,MIC,"M. smegmatis SZ380; SZ380, read-out: MIC SZ380 M. smegmatis, strain SZ380 Mycobacterium smegmatis",8 µg/mL
CCC[C@@H]1C(CO)O[C@H](O[C@@H]2C(N)C[C@@H](NC(=O)[C@@H](O)CCN)C(O)[C@H]2O[C@@H]2O[C@H](CO)[C@H](O[C@H]3C[C@@H](CN)[C@@H](O)C(O)C3N)C2O)[C@@H](N)C1O (stereo partly shown) [Compound 187],MIC AG160 E. coli WT,"E coli wild type; clinical isolate AG160 WT, Table 2 (Example 4)",2 µg/mL
same,MIC pH430 E. coli WT,"E coli wild type; engineered strain pH430 WT, Table 2 (Example 4)",0.5-1 μg/ml
same,MIC AG212 E. coli,E coli wild type; strain AG212 E. coli (ATCC25922),2 µg/mL
same,MIC AG220 P. aerugin,P aeruginosa; strain AG220 Pseudomonas aeruginosa ATCC27853,2 to 4 µg/mL
same,MIC AG163 E. coli APH(3′)-I,"[1]; clinical isolate AG163 APH(3′)-I, Table 2 (Example 4)",2 µg/mL
same,MIC AG166 E. coli APH(3′)-II,"[1]; clinical isolate AG166 APH(3′)-II, Table 2 (Example 4)",2 µg/mL
same,MIC AG037 E. coli APH(3′)-III,"[1]; engineered strain AG037 APH(3′)-III, Table 2 (Example 4)",8 µg/mL
same,MIC pH421 E. coli APH(3′)-I,"[1]; engineered strain pH421 APH(3′)-I, Table 2 (Example 4)",4-8 μg/ml
same,MIC pH422 E. coli APH(3′)-II,"[1]; engineered strain pH422 APH(3′)-II, Table 2 (Example 4)",0.5-1 μg/ml
same,MIC pH423 E. coli APH(3′)-VI,"[1]; engineered strain pH423 APH(3′)-VI, Table 2 (Example 4)",1 μg/ml
same,MIC AG215 K. pneumon,[7],0.5 µg/mL
same,MIC AG225 A. baumannii,[8],2 µg/mL
same,MIC AG290 E. cloacae,[9],0.5 to 1 µg/mL
same,Disk diffusion 25 nmol N. gonorrhoeae,N. gonorrhoeae,11 mm
CCCC(O)C1OC(OC2C(N)CC(N)C(O)C2OC2OC(CO)C(OC3OC(CN)C(O)C(O)C3N)C2O)C(N)C(O)C1O (stereo not shown) [DC142],MIC AG038 MRSA,MRSA; clinical isolate AG038,4 µg/mL
same,MIC AG039 MRSA AAC(6′)-I ANT(4′)-I,MRSA,>128 µg/mL
same,MIC AG042 MRSA AAC(6′)-I ANT(4′)-I APH(2′),MRSA,>128 µg/mL
same,MIC AG044 MRSA,MRSA; clinical isolate AG044,2 µg/mL
same,MIC pH430 WT,E coli wild type,1 μg/ml
same,MIC AG001 E. coli WT,"E coli wild type; clinical isolate AG001, WT",8 µg/mL
same,MIC AG055 E. coli WT,"E coli wild type; clinical isolate AG055, WT",8 µg/mL
same,MIC AG031 P. aer. APH(3′)-II,P aeruginosa,>128 µg/mL
same,MIC AG032 P. aer. APH(3′)-II,P aeruginosa,>128 µg/mL
same,"MIC AG036 ANT(4′,4′′)",[1],32 to 64 µg/mL
same,MIC AG037 APH(3′)-III,[1],>32 µg/mL
same,MIC AG103 armA,[1],1 µg/mL
same,MIC pH414 AAC(6′)-I,[1],1 μg/ml
same,MIC pH415 AAC(6′)-II,[1],1 μg/ml
same,MIC pH421 APH(3)-I,[1],>32 μg/ml
same,MIC pH422 APH(3′)-II,[1],>32 μg/ml
same,MIC pH423 APH(3′)-VI,[1],>32 μg/ml
same,MIC pH432 ANT(4′),[1],1 μg/ml
same,MIC AG003 E. coli AAC(3)-II,[1],8 µg/mL
same,IC50,[2]; [10],0.04 µM
same,IC50,[3],20 µM
same,IC50,[4]; [11],34 µM
same,IC50,[5]; [12],107 µM
same,IC50,[6],12 µM
CC(N)C1OC(OC2C(N)CC(N)C(O)C2OC2OC(CO)C(OC3OC(CN)C(O)C(O)C3N)C2O)C(N)C(O)C1O (stereo not shown) [DC166],MIC AG038 MRSA,MRSA; clinical isolate AG038,2 µg/mL
same,MIC AG039 MRSA AAC(6′)-I ANT(4′)-I,MRSA,>128 µg/mL
same,MIC AG042 MRSA AAC(6′)-I ANT(4′)-I APH(2′),MRSA,>128 µg/mL
same,MIC AG044 MRSA,MRSA; clinical isolate AG044,1 µg/mL
same,MIC pH430 WT,E coli wild type,0.5 μg/ml
same,MIC AG001 E. coli WT,"E coli wild type; clinical isolate AG001, WT",2 µg/mL
same,MIC AG055 E. coli WT,"E coli wild type; clinical isolate AG055, WT",2 µg/mL
same,MIC AG031 P. aer. APH(3′)-II,P aeruginosa,128 to 256 µg/mL
same,MIC AG032 P. aer. APH(3′)-II,P aeruginosa,128 µg/mL
same,"MIC AG036 ANT(4′,4′′)",[1],16 µg/mL
same,MIC AG037 APH(3′)-III,[1],>64 µg/mL
same,MIC AG103 armA,[1],1 µg/mL
same,MIC pH414 AAC(6′)-I,[1],0.5 μg/ml
same,MIC pH415 AAC(6′)-II,[1],1-2 μg/ml
same,MIC pH421 APH(3)-I,[1],>32 μg/ml
same,MIC pH422 APH(3′)-II,[1],>32 μg/ml
same,MIC pH423 APH(3′)-VI,[1],>32 μg/ml
same,MIC pH432 ANT(4′),[1],0.5 μg/ml
same,MIC AG003 E. coli AAC(3)-II,[1],2 µg/mL
same,IC50,[2]; [10],0.01 µM
same,IC50,[3],1 µM
same,IC50,[4]; [11],26 µM
same,IC50,[5]; [12],9 µM
same,IC50,[6],48 µM
